Measurements taken from US20230085307A1, “PYRIDAZINONE COMPOUND AND HERBICIDE” (NISSAN CHEMICAL CORPORATION, priority 2019, published 2023).

Columns and labels:
[1] = test system: velvetleaf; assay: Test Example 4: herbicidal effect by soil treatment (Table 19, symbol M); type: in vivo, velvetleaf (Abutilon theophrasti); details: amount of applied herbicide 320 g/ha
Procedure, shortened: (§1)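 Pre-emergence style soil spray: seeds under ~1.5 cm sterilized diluvial soil received a uniform coat of emulsion diluted to the predetermined herbicide amount. Greenhouse 25–30° C; readout at week three on previously defined criteria.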

[2] = test system: lambsquarters; assay: Test Example 5: herbicidal effect by foliage application, plastic box (Table 20, symbol O); type: in vivo, lambsquarters (Chenopodium album); details: foliage application, 320 g/ha, three weeks after application
Procedure, shortened: (§2)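 Plants were sown into sterilized diluvial soil under about 1.5 cm cover and kept in a greenhouse at 25° C. to 30° C. Fourteen days on, foliage received an even spray of the diluted emulsion. Herbicidal or crop effect was judged three weeks afterwards.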

[3] = test system: southern crabgrass; assay: Test Example 5: herbicidal effect by foliage application, plastic box (Table 20, symbol F); type: in vivo, southern crabgrass (Digitaria ciliaris); details: foliage application, 320 g/ha, three weeks after application
Procedure, shortened: as §2

[4] = test system: green foxtail; assay: Test Example 4: herbicidal effect by soil treatment (Table 19, symbol G); type: in vivo, green foxtail (Setaria viridis); details: amount of applied herbicide 320 g/ha
Procedure, shortened: as §1

[5] = test system: windgrass; assay: Test Example 4: herbicidal effect by soil treatment (Table 19, symbol L); type: in vivo, windgrass (Apera spica-venti); details: amount of applied herbicide 320 g/ha
Procedure, shortened: as §1

[6] = test system: Chinese sprangletop; assay: Test Example 3: herbicidal effect by foliage application, Wagner pot (Table 18, symbol D); type: in vivo, chinese sprangletop (Leptochloa chinensis)
Procedure, shortened: (§3)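 Plants were sown in alluvial soil held under 0.1–0.5 cm standing water and grown 14 days in a greenhouse at 25–30 °C. An emulsifiable formulation, water-diluted to the set dose, was then sprayed onto the foliage, and effects were scored three weeks later using previously defined criteria.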

[7] = test system: oval-leafed pondweed; assay: Test Example 1: herbicidal activity, application before weed generation under submerged conditions (Table 16, symbol C); type: in vivo, oval-leafed pondweed (Monochoria vaginalis); details: amount of applied herbicide 320 g/ha
Procedure, shortened: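 Alluvial soil was flooded to 4 cm depth, weed seeds were sown mixed and 2.5-leaf rice seedlings were transplanted. On sowing day, the compound's emulsion, diluted in water to a set dose, was applied to the water surface. Plants grew at 25–30 °C and were scored 0–5 after three weeks.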

[8] = test system: barnyard grass; assay: Test Example 3: herbicidal effect by foliage application, Wagner pot (Table 18, symbol H); type: in vivo, barnyard grass (Echinochloa crus-galli)
Procedure, shortened: as §3

[9] = test system: velvetleaf; assay: Test Example 5: herbicidal effect by foliage application, plastic box (Table 20, symbol M); type: in vivo, velvetleaf (Abutilon theophrasti); details: foliage application, 320 g/ha, three weeks after application
Procedure, shortened: as §2

[10] = test system: chickweed; assay: Test Example 4: herbicidal effect by soil treatment (Table 19, symbol P); type: in vivo, common chickweed (Stellaria media); details: amount of applied herbicide 320 g/ha
Procedure, shortened: as §1

[11] = test system: windgrass; assay: Test Example 5: herbicidal effect by foliage application, plastic box (Table 20, symbol L); type: in vivo, windgrass (Apera spica-venti); details: foliage application, 320 g/ha, three weeks after application
Procedure, shortened: as §2

[12] = test system: persian speedwell; assay: Test Example 5: herbicidal effect by foliage application, plastic box (Table 20, symbol R); type: in vivo, Persian speedwell (Veronica persica); details: foliage application, 320 g/ha, three weeks after application
Procedure, shortened: as §2

[13] = test system: rice flat sedge; assay: Test Example 3: herbicidal effect by foliage application, Wagner pot (Table 18, symbol E); type: in vivo, rice flat sedge (Cyperus iria)
Procedure, shortened: as §3

[14] = test system: lambsquarters; assay: Test Example 4: herbicidal effect by soil treatment (Table 19, symbol O); type: in vivo, lambsquarters (Chenopodium album); details: amount of applied herbicide 320 g/ha
Procedure, shortened: as §1

[15] = test system: late watergrass; assay: Test Example 2: herbicidal activity, application during weed generation under submerged conditions (Table 17, symbol A); type: in vivo, late watergrass (Echinochloa oryzicola); details: AAH 320 g/ha; application during weed generation, submerged conditions
Procedure, shortened: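 Herbicide emulsion, diluted with water to the chosen amount, is applied onto 4 cm floodwater over alluvial soil where the weeds were co-sown and raised at 25–30° C. Application timing: 1–2 leaves. Assessment: three weeks afterwards.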

[16] = test system: Italian ryegrass; assay: Test Example 5: herbicidal effect by foliage application, plastic box (Table 20, symbol K); type: in vivo, Italian ryegrass (Lolium multiflorum); details: foliage application, 320 g/ha, three weeks after application
Procedure, shortened: as §2

[17] = amount of applied herbicide 320 g/ha

| SMILES | O: lambsquarters, herbicidal effect grade [2] | F: southern crabgrass, herbicidal effect grade [3] | Herbicidal effect, C: oval-leafed pondweed [7] | M: velvetleaf, herbicidal effect grade [9] | L: windgrass, herbicidal effect grade [11] | R: persian speedwell, herbicidal effect grade [12] | herbicidal effect rating, A: late watergrass [15] | K: Italian ryegrass, herbicidal effect grade [16] | also measured |
| --- | --- | --- | --- | --- | --- | --- | --- | --- | --- |
| CCCC(=O)Oc1c(C)nn(C)c(=O)c1-c1c(-c2ccc(OC(C)C)cc2)sc2cc(F)ccc12 [3-020] | 3 (Herbicidal rate of 40% or more and less than 70%) | 0 (Herbicidal rate of 5% or less (almost no effect)) | 2 (Herbicidal rate of 20% or more and less than 40%) | 3 (Herbicidal rate of 40% or more and less than 70%) | 0 (Herbicidal rate of 5% or less (almost no effect)) | 5 (Herbicidal rate of 90% or more (almost completely withered)) | 1 (Herbicidal rate of 5% or more and less than 20%) | 2 (Herbicidal rate of 20% or more and less than 40%) | herbicidal effect, M: velvetleaf [1]: 0 (Herbicidal rate of 5% or less (almost no effect)); herbicidal effect, G: green foxtail [4]: 0 (Herbicidal rate of 5% or less (almost no effect)); herbicidal effect, L: windgrass [5]: 0 (Herbicidal rate of 5% or less (almost no effect)); herbicidal effect on D: Chinese sprangletop [6, 17]: 3 (Herbicidal rate of 40% or more and less than 70%); herbicidal effect on H: barnyard grass [8, 17]: 4 (Herbicidal rate of 70% or more and less than 90%); herbicidal effect, P: chickweed [10]: 0 (Herbicidal rate of 5% or less (almost no effect)); herbicidal effect on E: rice flat sedge [13, 17]: 5 (Herbicidal rate of 90% or more (almost completely withered)); herbicidal effect, O: lambsquarters [14]: 0 (Herbicidal rate of 5% or less (almost no effect)) |
| COc1ccccc1-c1sc2cc(OCC3CC3(F)F)ccc2c1-c1c(O)c(C)nn(C)c1=O (centres unmarked) [3-131] | 5 (Herbicidal rate of 90% or more (almost completely withered)) | 5 (Herbicidal rate of 90% or more (almost completely withered)) | 5 (Herbicidal rate of 90% or more (almost completely withered)) | 4 (Herbicidal rate of 70% or more and less than 90%) | 5 (Herbicidal rate of 90% or more (almost completely withered)) | 5 (Herbicidal rate of 90% or more (almost completely withered)) | 5 (Herbicidal rate of 90% or more (almost completely withered)) | 5 (Herbicidal rate of 90% or more (almost completely withered)) | M: velvetleaf, herbicidal effect grade [1]: 3 (Herbicidal rate of 40% or more and less than 70%); G: green foxtail, herbicidal effect grade [4]: 4 (Herbicidal rate of 70% or more and less than 90%); L: windgrass, herbicidal effect grade [5]: 3 (Herbicidal rate of 40% or more and less than 70%); herbicidal effect on Chinese sprangletop (D) ([6]; 320 g/ha): 3 (Herbicidal rate of 40% or more and less than 70%); herbicidal effect on barnyard grass (H) ([8]; 320 g/ha): 5 (Herbicidal rate of 90% or more (almost completely withered)); P: chickweed, herbicidal effect grade [10]: 4 (Herbicidal rate of 70% or more and less than 90%); herbicidal effect on rice flat sedge (E) ([13]; 320 g/ha): 5 (Herbicidal rate of 90% or more (almost completely withered)); O: lambsquarters, herbicidal effect grade [14]: 5 (Herbicidal rate of 90% or more (almost completely withered)) |
